Patent publication US20220305012A1, “L[…] TREATING SLEEP ISSUES” (EISAI R&D MANAGEMENT CO., LTD., priority 2019, published 2022)

Legend:
Format in all cases: in vivo, human
[1] = tested on: Subjects Having Insomnia Disorder; assay: Example 1: Morning Sleepiness rating (scale 1 to 9); conditions: for Morning Sleepiness score, Mean (SD): Baseline; for Morning Sleepiness score, Treatment difference (vs placebo): change from baseline at Month 6
Text: In some embodiments, sleep diaries were used to assess sleep parameters reported by subjects (i.e., subjective assessments) including subjective sleep onset latency (sSOL), subjective sleep efficiency (sSE), subjective WASO (sWASO), and subjective total sleep time (sTST). Subjects were instructed to complete the Sleep Diary developed based on the consensus Sleep Diary as described in Carney et al., “The consensus sleep diary: standardizing prospective sleep self-monitoring,” Sleep 2012; 35(2):287-302. In some embodiments, the Sleep Diary was used to assess the subject's global perception of quality of sleep on the previous night with the following question: “How would you rate the quality of your sleep last night?” Subjects rated the quality of their sleep on a scale from 1 to 9, with 1 being extremely poor and 9 being extremely good. In some embodiments, the Sleep Diary was used to assess subjective ratings of morning sleepiness with the following question: “How alert/sleepy do you feel this morning?” Subjects rated their sleepiness/alertness level on a Likert scale from 1 to 9, with 1 being extremely sleepy and 9 being extremely alert.
Treatment period 1 began with the first dose of randomized study medication (placebo, 5 mg of lemborexant, or 10 mg of lemborexant). Subjects completed sleep diaries daily in the morning, within one hour of waketime. The subjects were assessed by a clinician one month, two months, three months, and six months after initiation of Treatment period 1.

[2] = tested on: Subjects Having Insomnia Disorder; assay: Example 1: Insomnia Severity Index Total Score (Items 1-7)
Text: As used herein, the term “Insomnia Severity Index”, abbreviated as “ISI”, is an index calculated using a 7-item, self-report questionnaire assessing the nature, severity, and impact of insomnia (see Bastien, C. H., et al. “Validation of the Insomnia Severity Index as an outcome measure for insomnia research.” Sleep Med. 2001; 2(4): 297-307). The questionnaire evaluates: (1) severity of sleep onset; (2) sleep maintenance; (3) early morning awakening problems; (4) sleep dissatisfaction; (5) interference caused by sleep difficulties with daytime functioning; (6) noticeability of sleep problems by others; and (7) distress caused by the sleep difficulties. A 5-point scale is used to rate each item (0=no problem to 4=very severe problem) yielding a total score from 0 to 28. Total ISI score (items (1)-(7)) and daytime functioning (items (4)-(7)) are analyzed separately.
Month 1 Assessment: Standard safety assessments were performed on the subject. A blood sample was collected for determination of plasma concentration of lemborexant and its metabolites, and the ISI, FSS, PGI-Insomnia, EQ-5D-3L, and eC-SSR were completed.
Month 3 Assessment: All assessments conducted at the Month 1 Assessment were repeated.
Month 6 Assessment: All assessments conducted at the Month 1 Assessment were repeated, and subjects completed the WPAI-GH.

[3] = Example 2: plasma concentrations of lemborexant and metabolites
Protocol: Within 5 minutes of the subject's mean habitual bedtime, study drug was administered and an overnight polysomnogram recording was initiated. At completion of the recording the following morning (Day 2), postural stability and cognitive performance were assessed. On the Day 2 evening, subjects returned to the clinic and a blood sample was collected before administering study drug, and then study drug was administered within 5 minutes of the subject's mean habitual bedtime. Again, a polysomnogram recording was initiated. The next morning (Day 3), postural stability and cognitive performance were assessed. A blood sample was also collected.
On the evening of Day 30, subjects returned to the clinic. A pre-dose blood sample was collected and study drug was again administered within 5 minutes of the subject's mean habitual bedtime. A polysomnogram recording was initiated. The following morning (Day 31), postural stability and cognitive performance were assessed and a blood sample was obtained. The ISI, FSS, EQ-5D-3L and PGI-Insomnia were administered. Blood and urine samples were collected for routine safety assessment. An electrocardiogram was performed, and vital signs and weight were assessed. The eC-SSRS was then administered to the subject. At 1.5 hours after waketime, subjects rated their morning sleepiness level.

[4] = tested on: Subjects Having Insomnia Disorder; assay: Example 3: proportion of sWASO responders (pooled Examples 1 and 2)
Protocol: The data collected in studies described in Example 1 and Example 2 were pooled and the response of each subject was analyzed.

[5] = Lemborexant 5 mg dose, Day 2 Post-Dose
[6] = Lemborexant 5 mg dose, Day 2 Pre-Dose
[7] = Lemborexant 5 mg dose, Day 29 Post-Dose
[8] = Lemborexant 5 mg dose, Day 29 Pre-Dose
[9] = Lemborexant 10 mg dose, Day 2 Post-Dose
[10] = Lemborexant 10 mg dose, Day 2 Pre-Dose
[11] = Lemborexant 10 mg dose, Day 29 Post-Dose
[12] = Lemborexant 10 mg dose, Day 29 Pre-Dose
[13] = First 7 Days, Lemborexant 10 mg

Cc1ncc(OC[C@@]2(c3cccc(F)c3)C[C@H]2C(=O)Nc2ccc(F)cn2)c(C)n1 [Lemborexant, (1R,2S)-2-(((2,4-dimethylpyrimidin-5-yl)oxy)methyl)-2-(3-fluorophenyl)-N-(5-fluoropyridin-2-yl)cyclopropanecarboxamide]
Morning Sleepiness score, Mean (SD) ([1]; 5 mg): 3.93 (1.35) | Morning Sleepiness score, Treatment difference (vs placebo) ([1]; 5 mg): 0.15 | Morning Sleepiness score, Mean (SD) ([1]; 10 mg): 3.93 (1.32) | Morning Sleepiness score, Treatment difference (vs placebo) ([1]; 10 mg): 0.26 | morning sleepiness compared with placebo ([1]; at 6 months (Table 8)): significantly improved | insomnia severity index score compared with placebo ([2]; 5 mg and 10 mg, at the equivalent timepoint (Tables 6 and 7: daytime functioning and total score)): greater decrease in insomnia severity index score than subjects treated with placebo | ISI Total Score (Items 1-7), Mean ([2]; 5 mg, Month 1): 12.6 | ISI Total Score (Items 1-7), Median ([2]; 5 mg, Month 1): 12.0 | ISI Total Score (Items 1-7), Mean ([2]; 5 mg, Month 3): 10.8 | ISI Total Score (Items 1-7), Median ([2]; 5 mg, Month 3): 10.0 | ISI Total Score (Items 1-7), Mean ([2]; 5 mg, Month 6): 9.6 | ISI Total Score (Items 1-7), Median ([2]; 5 mg, Month 6): 9.0 | ISI Total Score (Items 1-7), Mean ([2]; 5 mg, Study Baseline): 19.6 | ISI Total Score (Items 1-7), Median ([2]; 5 mg, Study Baseline): 19.0 | ISI Total Score Change from Study Baseline, Mean ([2]; 5 mg, after 1 Month): −7.1 | ISI Total Score Change from Study Baseline, Median ([2]; 5 mg, after 1 Month): −6.0 | ISI Total Score Change from Study Baseline, Mean ([2]; 5 mg, after 3 Months): −8.6 | ISI Total Score Change from Study Baseline, Median ([2]; 5 mg, after 3 Months): −8.0 | ISI Total Score Change from Study Baseline, Mean ([2]; 5 mg, after 6 Months): −9.9 | ISI Total Score Change from Study Baseline, Median ([2]; 5 mg, after 6 Months): −10.0 | ISI Total Score LSM treatment difference: Lemborexant/Placebo ([2]; 5 mg, change from Study Baseline after 1 Month): −1.47 | ISI Total Score LSM treatment difference: Lemborexant/Placebo ([2]; 5 mg, change from Study Baseline after 3 Months): −2.02 | ISI Total Score LSM treatment difference: Lemborexant/Placebo ([2]; 5 mg, change from Study Baseline after 6 Months): −2.10 | ISI Total Score (Items 1-7), Mean ([2]; 10 mg, Month 1): 12.0 | ISI Total Score (Items 1-7), Median ([2]; 10 mg, Month 1): 12.0 | ISI Total Score (Items 1-7), Mean ([2]; 10 mg, Month 3): 10.2 | ISI Total Score (Items 1-7), Median ([2]; 10 mg, Month 3): 10.0 | ISI Total Score (Items 1-7), Mean ([2]; 10 mg, Month 6): 9.4 | ISI Total Score (Items 1-7), Median ([2]; 10 mg, Month 6): 9.0 | ISI Total Score (Items 1-7), Mean ([2]; 10 mg, Study Baseline): 19.0 | ISI Total Score (Items 1-7), Median ([2]; 10 mg, Study Baseline): 19.0 | ISI Total Score Change from Study Baseline, Mean ([2]; 10 mg, after 1 Month): −7.2 | ISI Total Score Change from Study Baseline, Median ([2]; 10 mg, after 1 Month): −6.0 | ISI Total Score Change from Study Baseline, Mean ([2]; 10 mg, after 3 Months): −8.9 | ISI Total Score Change from Study Baseline, Median ([2]; 10 mg, after 3 Months): −9.0 | ISI Total Score Change from Study Baseline, Mean ([2]; 10 mg, after 6 Months): −9.8 | ISI Total Score Change from Study Baseline, Median ([2]; 10 mg, after 6 Months): −9.5 | ISI Total Score LSM treatment difference: Lemborexant/Placebo ([2]; 10 mg, change from Study Baseline after 1 Month): −1.87 | ISI Total Score LSM treatment difference: Lemborexant/Placebo ([2]; 10 mg, change from Study Baseline after 3 Months): −2.57 | ISI Total Score LSM treatment difference: Lemborexant/Placebo ([2]; 10 mg, change from Study Baseline after 6 Months): −2.35 | Plasma Concentrations, BLQ (<0.0500 ng/mL), n (%) [3, 5]: 6 (2.3) n (%) | Plasma Concentrations, Mean (SD) [3, 5]: 5.3 (2.55) ng/mL | Plasma Concentrations, Median [3, 5]: 5.0 ng/mL | Plasma Concentrations, BLQ (<0.0500 ng/mL), n (%) [3, 6]: 10 (3.9) n (%) | Plasma Concentrations, Mean (SD) [3, 6]: 2.1 (1.48) ng/mL | Plasma Concentrations, Median [3, 6]: 1.8 ng/mL | Plasma Concentrations, BLQ (<0.0500 ng/mL), n (%) [3, 7]: 6 (2.4) n (%) | Plasma Concentrations, Mean (SD) [3, 7]: 10.7 (6.66) ng/mL | Plasma Concentrations, Median [3, 7]: 9.1 ng/mL | Plasma Concentrations, BLQ (<0.0500 ng/mL), n (%) [3, 8]: 8 (3.1) n (%) | Plasma Concentrations, Mean (SD) [3, 8]: 7.3 (5.60) ng/mL | Plasma Concentrations, Median [3, 8]: 6.1 ng/mL | Plasma Concentrations, BLQ (<0.0500 ng/mL), n (%) [3, 9]: 5 n (%) | Plasma Concentrations, Mean (SD) [3, 9]: 11.5 ng/mL | Plasma Concentrations, Median [3, 9]: 10.4 ng/mL | Plasma Concentrations, BLQ (<0.0500 ng/mL), n (%) [3, 10]: 15 n (%) | Plasma Concentrations, Mean (SD) [3, 10]: 4.4 ng/mL | Plasma Concentrations, Median [3, 10]: 3.7 ng/mL | Plasma Concentrations, BLQ (<0.0500 ng/mL), n (%) [3, 11]: 6 n (%) | Plasma Concentrations, Mean (SD) [3, 11]: 21.1 ng/mL | Plasma Concentrations, Median [3, 11]: 19.6 ng/mL | Plasma Concentrations, BLQ (<0.0500 ng/mL), n (%) [3, 12]: 6 n (%) | Plasma Concentrations, Mean (SD) [3, 12]: 15.1 ng/mL | Plasma Concentrations, Median [3, 12]: 13.7 ng/mL | Subjective Wake After Sleep Onset Responder, No, n (%) ([4]; First 7 Days, Lemborexant 5 mg): 420 (81.1) n (%) | Subjective Wake After Sleep Onset Responder, Yes, n (%) ([4]; First 7 Days, Lemborexant 5 mg): 91 (17.6) n (%) | Subjective Wake After Sleep Onset Responders, Difference of proportion vs. Placebo ([4]; First 7 Days, Lemborexant 5 mg): 6.15 | Subjective Wake After Sleep Onset Responder, No, n (%) [4, 13]: 411 (79.5) n (%) | Subjective Wake After Sleep Onset Responder, Yes, n (%) [4, 13]: 100 (19.3) n (%) | Subjective Wake After Sleep Onset Responders, Difference of proportion vs. Placebo [4, 13]: 7.84 | Subjective Wake After Sleep Onset Responder, No, n (%) ([4]; Month 1, Lemborexant 5 mg): 372 (71.8) n (%) | Subjective Wake After Sleep Onset Responder, Yes, n (%) ([4]; Month 1, Lemborexant 5 mg): 121 (23.4) n (%) | Subjective Wake After Sleep Onset Responders, Difference of proportion vs. Placebo ([4]; Month 1, Lemborexant 5 mg): 5.61 | Subjective Wake After Sleep Onset Responder, No, n (%) ([4]; Month 1, Lemborexant 10 mg): 368 (71.2) n (%) | Subjective Wake After Sleep Onset Responder, Yes, n (%) ([4]; Month 1, Lemborexant 10 mg): 122 (23.6) n (%) | Subjective Wake After Sleep Onset Responders, Difference of proportion vs. Placebo ([4]; Month 1, Lemborexant 10 mg): 5.96 | proportion of sWASO responders compared with placebo ([4]; both doses, first 7 days and end of month 1, responder: sWASO of 60 or less minutes and reduction of at least 10 minutes, baseline >60 minutes (Table 31)): statistically significantly superior
